Several values for one entry are separate records, joined by “and”; a condition that tells them apart may be missing. Identical values can stand only once.
Test system: murine B16 melanoma
Test: Antitumor effect in murine B16 melanoma model, tumor size and tumor weight (Example 2)
Type: in vivo, C57BL/6 mice
Details: for Tumor volumes / Tumor measurements L / Tumor measurements W: Day 12; for IR (tumor volume inhibition rate) / Tumor Volume (Mean ± SD) / Tumor volumes (cm^3) on Day 15 / Tumor measurements (cm) on Day 15, L / Tumor measurements (cm) on Day 15, W: Day 15; for IR (inhibition rate of tumor weight) / Tumor Weight (Mean ± SD) / Tumor weights (g) on Day 17: Day 17; for Tumor volumes (cm^3) on Day 15: Length × Width × Width/2; for Tumor volumes (cm^3) on Day 15 / Tumor measurements (cm) on Day 15, L / Tumor measurements (cm) on Day 15, W / Tumor weights (g) on Day 17: individual animals F1-F5, M1-M5
Protocol: As per aseptic tissue culture procedures, one vial of B16 melanoma cells (supplied by Cell Culture Center of CAMS) was thawed and centrifuged at 1000 rpm, 20-25° C. for 5 minutes. The cell pellets were suspended in 0.1-0.5 mL normal saline (NS) and subcutaneously injected into the right axilla of each mouse (approximately 1×10^6 cells/mouse). When the tumor diameter was 1 cm approximately (measured by vernier caliper), the animals were euthanized with CO2 asphyxiation and the tumor was excised. Tumor cells were suspended in normal saline as previously described and the cell adaptation cycle was repeated once.
On Day 0, 1×10^6 B16 cells in a volume of 0.1 mL normal saline were subcutaneously injected into the right axillary area of the mouse. The day of tumor inoculation was defined as Day 0.
Dosing was initiated on Day 1.
Observations were recorded daily for mortality and moribundity. […] The tumors were excised, separated, and weighed.
Tumor volume was calculated using the following formula: Tumor Volume=Length×Width×Width/2 Tumor volume inhibition rate (IR) was calculated according to the formula: IR(TV)=(TVvehicle−TVdrug treated)/TVvehicle×100% TV is the tumor volume on the day of measurement.
The antitumor effect of the test article was also evaluated by tumor weight. The tumor weight of each mouse was recorded after euthanasia, and the inhibition rate of tumor weight was calculated according to the formula: IR(TW)=(Tumor weightvehicle−Tumor weightdrug treated)/Tumor weightvehicle×100%

[1] = SCV-07 0.01 mg/kg (Group 3), 0.01 mg/kg, female animals
[2] = SCV-07 0.01 mg/kg (Group 3), 0.01 mg/kg, male animals
[3] = SCV-07 0.01 mg/kg (Group 3), 0.01 mg/kg
[4] = SCV-07 0.1 mg/kg (Group 4), 0.1 mg/kg, female animals
[5] = SCV-07 0.1 mg/kg (Group 4), 0.1 mg/kg, male animals
[6] = SCV-07 0.1 mg/kg (Group 4), 0.1 mg/kg
[7] = SCV-07 1.0 mg/kg (Group 5), 1 mg/kg, female animals
[8] = SCV-07 1.0 mg/kg (Group 5), 1 mg/kg, male animals
[9] = SCV-07 1.0 mg/kg (Group 5), 1 mg/kg
[10] = SCV-07 5.0 mg/kg (Group 6), 5 mg/kg, female animals
[11] = SCV-07 5.0 mg/kg (Group 6), 5 mg/kg, male animals
[12] = SCV-07 5.0 mg/kg (Group 6), 5 mg/kg

SMILES: N[C@H](CCC(=O)N[C@@H](Cc1c[nH]c2ccccc12)C(=O)O)C(=O)O [SCV-07, γ-D-glutamyl-L-tryptophan]
- Tumor volumes (mouse M3, SCV-07 0.1 mg/kg sc): 0.67 cm^3
- Tumor measurements L (mouse M3, SCV-07 1.0 mg/kg sc): 0.7 cm
- Tumor measurements W (mouse M3, SCV-07 1.0 mg/kg sc): 0.7 cm
- Tumor volumes (mouse M3, SCV-07 1.0 mg/kg sc): 0.17 cm^3
- Tumor measurements L (mouse M3, SCV-07 5.0 mg/kg sc): 0.9 cm
- Tumor measurements W (mouse M3, SCV-07 5.0 mg/kg sc): 0.9 cm
- Tumor volumes (mouse M3, SCV-07 5.0 mg/kg sc): 0.36 cm^3
- Tumor measurements L (mouse M4, SCV-07 0.01 mg/kg sc): 1.0 cm
- Tumor measurements W (mouse M4, SCV-07 0.01 mg/kg sc): 1.0 cm
- Tumor volumes (mouse M4, SCV-07 0.01 mg/kg sc): 0.50 cm^3
- Tumor measurements L (mouse M4, SCV-07 0.1 mg/kg sc): 1.0 cm
- Tumor measurements W (mouse M4, SCV-07 0.1 mg/kg sc): 0.9 cm
- Tumor volumes (mouse M4, SCV-07 0.1 mg/kg sc): 0.41 cm^3
- Tumor measurements L (mouse M4, SCV-07 1.0 mg/kg sc): 1.0 cm
- Tumor measurements W (mouse M4, SCV-07 1.0 mg/kg sc): 0.7 cm
- Tumor volumes (mouse M4, SCV-07 1.0 mg/kg sc): 0.25 cm^3
- Tumor measurements L (mouse M4, SCV-07 5.0 mg/kg sc): 1.1 cm
- Tumor measurements W (mouse M4, SCV-07 5.0 mg/kg sc): 1.1 cm
- Tumor volumes (mouse M4, SCV-07 5.0 mg/kg sc): 0.67 cm^3
- Tumor measurements L (mouse M5, SCV-07 0.01 mg/kg sc): 1.1 cm
- Tumor measurements W (mouse M5, SCV-07 0.01 mg/kg sc): 1.0 cm
- Tumor volumes (mouse M5, SCV-07 0.01 mg/kg sc): 0.55 cm^3
- Tumor measurements L (mouse M5, SCV-07 0.1 mg/kg sc): 0.9 cm
- Tumor measurements W (mouse M5, SCV-07 0.1 mg/kg sc): 0.9 cm
- Tumor volumes (mouse M5, SCV-07 0.1 mg/kg sc): 0.36 cm^3
- Tumor measurements L (mouse M5, SCV-07 1.0 mg/kg sc): 0.8 cm
- Tumor measurements W (mouse M5, SCV-07 1.0 mg/kg sc): 0.7 cm
- Tumor volumes (mouse M5, SCV-07 1.0 mg/kg sc): 0.20 cm^3
- IR (tumor volume inhibition rate) (SCV-07 0.01 mg/kg/day sc): 15.3%
- Tumor Volume (Mean ± SD) (SCV-07 0.01 mg/kg/day sc): 1.642 ± 0.549 cm^3
- IR (tumor volume inhibition rate) (SCV-07 0.1 mg/kg/day sc): 7.9%
- Tumor Volume (Mean ± SD) (SCV-07 0.1 mg/kg/day sc): 1.786 ± 0.524 cm^3
- IR (tumor volume inhibition rate) (SCV-07 1.0 mg/kg/day sc): 16.5%
- Tumor Volume (Mean ± SD) (SCV-07 1.0 mg/kg/day sc): 1.617 ± 0.274 cm^3
- IR (tumor volume inhibition rate) (SCV-07 5.0 mg/kg/day sc): 30.2%
- Tumor Volume (Mean ± SD) (SCV-07 5.0 mg/kg/day sc): 1.353 ± 0.591 cm^3
- IR (inhibition rate of tumor weight) (SCV-07 0.01 mg/kg/day sc): 27.5%
- Tumor Weight (Mean ± SD) (SCV-07 0.01 mg/kg/day sc): 2.77 ± 0.88 g
- IR (inhibition rate of tumor weight) (SCV-07 0.1 mg/kg/day sc): 5.8%
- Tumor Weight (Mean ± SD) (SCV-07 0.1 mg/kg/day sc): 3.59 ± 0.62 g
- IR (inhibition rate of tumor weight) (SCV-07 1.0 mg/kg/day sc): 23.5%
- Tumor Weight (Mean ± SD) (SCV-07 1.0 mg/kg/day sc): 2.92 ± 0.55 g
- IR (inhibition rate of tumor weight) (SCV-07 5.0 mg/kg/day sc): 30.8%
- Tumor Weight (Mean ± SD) (SCV-07 5.0 mg/kg/day sc): 2.64 ± 1.14 g
- Tumor volumes (cm^3) on Day 15 [1]: 1.37 cm^3 and 1.69 cm^3 (3×) and 1.47 cm^3
- Tumor volumes (cm^3) on Day 15 [2]: 1.57 cm^3 and 1.69 cm^3 and 3.18 cm^3 and 1.47 cm^3 and 2.05 cm^3
- Tumor measurements (cm) on Day 15, L [3]: 1.5 cm and 1.8 cm (3×) and 1.4 cm (5×) and 1.3 cm
- Tumor measurements (cm) on Day 15, W [3]: 1.5 cm (3×) and 1.4 cm (4×) and 1.3 cm (2×) and 1.8 cm
- Tumor weights (g) on Day 17 [1]: 1.55 g and 2.04 g and 2.24 g and 3.71 g and 3.21 g
- Tumor weights (g) on Day 17 [2]: 2.77 g and 2.80 g and 4.57 g and 2.29 g and 2.50 g
- Tumor volumes (cm^3) on Day 15 [4]: 1.18 cm^3 (2×) and 1.69 cm^3 (2×) and 1.80 cm^3
- Tumor volumes (cm^3) on Day 15 [5]: 1.69 cm^3 (2×) and 1.77 cm^3 and 1.44 cm^3 and 2.05 cm^3
- Tumor measurements (cm) on Day 15, L [6]: 1.5 cm (6×) and 2.2 cm and 1.6 cm (2×) and 1.4 cm
- Tumor measurements (cm) on Day 15, W [6]: 1.4 cm (4×) and 1.7 cm and 1.6 cm and 1.5 cm (4×)
- Tumor weights (g) on Day 17 [4]: 2.46 g and 4.08 g and 4.03 g and 3.93 g and 3.52 g
- Tumor weights (g) on Day 17 [5]: 3.10 g and 3.73 g and 4.47 g and 2.86 g and 3.74 g
- Tumor volumes (cm^3) on Day 15 [7]: 1.10 cm^3 and 1.37 cm^3 and 1.80 cm^3 and 1.35 cm^3 and 1.57 cm^3
- Tumor volumes (cm^3) on Day 15 [8]: 1.47 cm^3 (2×) and 2.30 cm^3 and 1.10 cm^3
- Tumor measurements (cm) on Day 15, L [9]: 1.5 cm (3×) and 1.7 cm and 1.6 cm (2×) and 2 cm and 1.4 cm (2×) and 2.1 cm
- Tumor measurements (cm) on Day 15, W [9]: 1.5 cm (4×) and 1.3 cm (5×) and 1.6 cm
- Tumor weights (g) on Day 17 [7]: 2.69 g and 2.67 g and 4.06 g and 2.66 g and 3.25 g
- Tumor weights (g) on Day 17 [8]: 3.58 g and 2.89 g and 2.25 g and 2.55 g and 2.58 g
- Tumor volumes (cm^3) on Day 15 [10]: 1.91 cm^3 and 2.56 cm^3 and 1.69 cm^3 and 2.03 cm^3 and 1.57 cm^3
- Tumor volumes (cm^3) on Day 15 [11]: 1.37 cm^3 and 2.05 cm^3 (2×) and 2.03 cm^3 and 2.14 cm^3
- Tumor measurements (cm) on Day 15, L [12]: 1.6 cm (3×) and 1.5 cm (2×) and 1.8 cm and 1.3 cm (2×) and 1.4 cm
- Tumor measurements (cm) on Day 15, W [12]: 1.4 cm (4×) and 1.6 cm and 1.3 cm (3×) and 1.5 cm
- Tumor weights (g) on Day 17 [10]: 1.94 g and 3.15 g and 2.97 g and 2.80 g and 2.85 g
- Tumor weights (g) on Day 17 [11]: 4.30 g and 0.15 g and 2.45 g and 3.78 g and 2.02 g
- B16 melanoma tumor growth (SCV-07 0.01, 1.0 and 5.0 mg/kg/day sc for 14 days): significantly reduced

From patent US8163702B2, “Treatment of melanoma” (SciClone Pharmaceuticals, Inc., priority 2006, dated 2012)
